# Active and inactive are the calls of the source. No cut-off for these calls is given here.
# Key:
# [1] = target: Kappa-type opioid receptor (Homo sapiens) (UniProt P41145); assay: Binding affinity to kappa opioid receptor (unknown origin) at 10 uM by agonist displacement assay relative to control
# Glucagon receptor [2] = target: Glucagon receptor (Homo sapiens, UniProt P47871); assay: Antagonist activity at human GCGR expressed in CHO cells assessed as inhibition of glucagon-stimulated cAMP production preincubated for 30 mins followed by glucagon induction measured after 45 mins by LANCE assay; assay type: functional, cell-based
# Glucagon receptor [3] = target: Glucagon receptor (Mus musculus, UniProt Q61606); assay type: cell membranes, Liver, Membrane
# Description: Displacement of [125I]-glucagon from GCGR in mouse liver membranes after 60 mins by scintillation counting analysis
# [4] = Plasma clearance in mouse at 3 mg/kg, iv; assay type: ADME, organism-based; set-up: dose 3 mg/kg, route intravenous
# [5] = Plasma clearance in rat at 3 mg/kg, iv; assay type: ADME, organism-based; set-up: dose 3 mg/kg, route intravenous
# [6] = Volume of distribution at steady state in rat at 3 mg/kg, iv; assay type: ADME, organism-based; set-up: dose 3 mg/kg, route intravenous; details: in vivo, read-out: Vdss
# [7] = Half life in rat at 3 mg/kg, iv; assay type: ADME, organism-based; set-up: dose 3 mg/kg, route intravenous; details: in vivo
# [8] = Half life in monkey at 3 mg/kg, iv; assay type: ADME, organism-based, Macaca mulatta; set-up: dose 3 mg/kg, route intravenous; details: rhesus monkey, in vivo
# Mus musculus [9] = assay: Dose-normalized AUC in mouse at 3 mg/kg, po; assay type: ADME, organism-based; set-up: dose 3 mg/kg, route oral; details: in vivo
# Canis familiaris = assay: Dose-normalized AUC in dog at 5 mg/kg, po; assay type: ADME, organism-based, Canis lupus familiaris; set-up: dose 5 mg/kg, route oral; details: in vivo
# [10] = Oral bioavailability in mouse at 3 mg/kg; assay type: ADME, organism-based; details: in vivo
# [11] = Oral bioavailability in rat at 3 mg/kg; assay type: ADME, organism-based; details: in vivo
# [12] = Oral bioavailability in dog at 5 mg/kg; assay type: ADME, organism-based, Canis lupus familiaris; details: in vivo
# [13] = Oral bioavailability in monkey at 3 mg/kg; assay type: ADME, organism-based, Macaca mulatta; details: rhesus monkey, in vivo
# [14] = target: T1, Type-1 angiotensin II receptor (Homo sapiens) (UniProt P30556); assay: Binding affinity to AT1 receptor (unknown origin) at 10 uM by antagonist displacement assay relative to control
# T1 sequence (whole entry): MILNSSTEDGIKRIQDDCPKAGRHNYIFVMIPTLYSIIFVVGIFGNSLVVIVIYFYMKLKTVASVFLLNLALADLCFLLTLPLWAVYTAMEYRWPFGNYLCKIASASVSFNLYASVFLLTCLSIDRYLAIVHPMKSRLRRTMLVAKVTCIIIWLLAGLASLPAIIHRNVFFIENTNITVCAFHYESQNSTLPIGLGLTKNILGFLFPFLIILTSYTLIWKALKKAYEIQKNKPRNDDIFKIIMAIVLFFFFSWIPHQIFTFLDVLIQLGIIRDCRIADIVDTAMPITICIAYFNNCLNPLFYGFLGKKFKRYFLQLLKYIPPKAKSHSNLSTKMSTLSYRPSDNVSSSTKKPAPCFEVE
# Adenosine receptor A3 = target: T2, Adenosine receptor A3 (Homo sapiens, UniProt P0DMS8); assay: Binding affinity to adenosine A3 receptor (unknown origin) by agonist displacement assay
# T2 sequence (P0DMS8 whole entry): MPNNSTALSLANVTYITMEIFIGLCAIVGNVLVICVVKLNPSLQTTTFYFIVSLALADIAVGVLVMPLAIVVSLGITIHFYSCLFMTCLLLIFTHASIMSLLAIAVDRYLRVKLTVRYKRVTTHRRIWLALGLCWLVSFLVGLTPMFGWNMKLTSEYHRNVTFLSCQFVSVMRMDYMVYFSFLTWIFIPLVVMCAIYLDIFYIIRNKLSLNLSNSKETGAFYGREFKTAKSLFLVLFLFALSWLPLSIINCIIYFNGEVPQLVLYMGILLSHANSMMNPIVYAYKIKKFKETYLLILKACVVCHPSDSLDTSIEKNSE
# [15] = target: T3, Vasoactive intestinal polypeptide receptor 1 (Homo sapiens) (UniProt P32241); assay: Binding affinity to VIP-1 receptor (unknown origin) at 10 uM by agonist displacement assay relative to control
# T3 sequence (whole entry): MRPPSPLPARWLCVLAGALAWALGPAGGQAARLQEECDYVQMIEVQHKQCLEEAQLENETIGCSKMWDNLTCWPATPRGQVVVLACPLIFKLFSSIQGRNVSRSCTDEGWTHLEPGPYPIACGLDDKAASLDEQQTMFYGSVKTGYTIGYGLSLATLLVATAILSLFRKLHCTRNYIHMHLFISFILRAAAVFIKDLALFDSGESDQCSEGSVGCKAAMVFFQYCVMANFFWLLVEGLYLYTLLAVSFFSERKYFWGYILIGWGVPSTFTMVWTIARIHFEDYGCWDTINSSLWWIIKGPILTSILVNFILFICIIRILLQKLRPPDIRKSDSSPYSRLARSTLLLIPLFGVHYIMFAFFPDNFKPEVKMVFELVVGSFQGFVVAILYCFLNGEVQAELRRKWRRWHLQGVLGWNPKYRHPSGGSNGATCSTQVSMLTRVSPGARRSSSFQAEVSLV
# [16] = target: T4, Gastric inhibitory polypeptide receptor (Homo sapiens, UniProt P48546); assay: Antagonist activity at human GIPR assessed as inhibition of cAMP production; assay type: functional
# T4 sequence (P48546 whole entry): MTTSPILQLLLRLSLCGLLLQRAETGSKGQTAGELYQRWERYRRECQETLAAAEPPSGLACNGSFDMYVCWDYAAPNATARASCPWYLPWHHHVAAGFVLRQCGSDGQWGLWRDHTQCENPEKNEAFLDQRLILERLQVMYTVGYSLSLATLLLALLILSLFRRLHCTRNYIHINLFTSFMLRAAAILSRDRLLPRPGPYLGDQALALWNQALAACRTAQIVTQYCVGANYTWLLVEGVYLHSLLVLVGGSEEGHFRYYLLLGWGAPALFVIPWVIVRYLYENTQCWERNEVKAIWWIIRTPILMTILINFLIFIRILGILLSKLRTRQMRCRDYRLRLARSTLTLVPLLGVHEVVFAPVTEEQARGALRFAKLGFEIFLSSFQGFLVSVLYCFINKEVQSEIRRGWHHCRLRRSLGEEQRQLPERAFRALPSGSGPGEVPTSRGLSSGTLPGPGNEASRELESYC
# Mus musculus [17] = assay: Antidiabetic activity in diet-induced obese ICR mouse model assessed as decrease in nonfasting blood glucose level at 3 to 10 mg/kg, po measured at 24 hrs by glucometer; assay type: functional, organism-based
# [18] = Plasma concentration in diet-induced obese ICR mouse model at 10 mg/kg, po measured at 24 hrs by HPLC/MS/MS analysis; assay type: ADME, organism-based; set-up: dose 10 mg/kg, route oral
# Mus musculus [19] = assay: Antidiabetic activity in streptozotocin-induced ICR mouse type-2 diabetic model assessed as decrease in fasting blood glucose level at 30 mg/kg, po measured at 8 hrs by glucometer relative to vehicle-treated control; assay type: functional, organism-based; set-up: dose 30 mg/kg
# [20] = Plasma concentration in streptozotocin-induced ICR mouse type-2 diabetic model at 3 mg/kg, po measured at 8 hrs by HPLC/MS/MS analysis; assay type: ADME, organism-based; set-up: dose 3 mg/kg, route oral
# [21] = Plasma concentration in streptozotocin-induced ICR mouse type-2 diabetic model at 10 mg/kg, po measured at 8 hrs by HPLC/MS/MS analysis; assay type: ADME, organism-based; set-up: dose 10 mg/kg, route oral
# [22] = Plasma concentration in streptozotocin-induced ICR mouse type-2 diabetic model at 30 mg/kg, po measured at 8 hrs by HPLC/MS/MS analysis; assay type: ADME, organism-based; set-up: dose 30 mg/kg, route oral
# [23] = target: T5, Adenosine receptor A3 (Homo sapiens) (UniProt P0DMS8); details: 10 uM
# T5 sequence (whole entry): T2 sequence (P0DMS8 whole entry)
# Description: Binding affinity to adenosine A3 receptor (unknown origin) at 10 uM by agonist displacement assay relative to control
# Chain of Glucagon receptor (Homo sapiens, UniProt P47871) (P47871 whole entry): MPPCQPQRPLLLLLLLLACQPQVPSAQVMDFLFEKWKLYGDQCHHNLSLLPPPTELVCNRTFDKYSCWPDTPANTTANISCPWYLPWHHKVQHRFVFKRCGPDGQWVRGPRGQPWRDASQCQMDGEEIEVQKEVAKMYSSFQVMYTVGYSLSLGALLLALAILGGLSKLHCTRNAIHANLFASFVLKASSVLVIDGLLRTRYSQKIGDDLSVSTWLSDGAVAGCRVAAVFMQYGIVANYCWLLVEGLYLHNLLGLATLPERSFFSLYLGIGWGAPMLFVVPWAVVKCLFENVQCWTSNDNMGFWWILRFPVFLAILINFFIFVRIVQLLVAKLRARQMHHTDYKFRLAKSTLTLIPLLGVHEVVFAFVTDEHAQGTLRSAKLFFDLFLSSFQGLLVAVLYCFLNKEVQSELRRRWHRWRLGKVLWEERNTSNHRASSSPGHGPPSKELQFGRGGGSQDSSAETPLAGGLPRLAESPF
# Chain of Kappa-type opioid receptor (Homo sapiens) (P41145 whole entry): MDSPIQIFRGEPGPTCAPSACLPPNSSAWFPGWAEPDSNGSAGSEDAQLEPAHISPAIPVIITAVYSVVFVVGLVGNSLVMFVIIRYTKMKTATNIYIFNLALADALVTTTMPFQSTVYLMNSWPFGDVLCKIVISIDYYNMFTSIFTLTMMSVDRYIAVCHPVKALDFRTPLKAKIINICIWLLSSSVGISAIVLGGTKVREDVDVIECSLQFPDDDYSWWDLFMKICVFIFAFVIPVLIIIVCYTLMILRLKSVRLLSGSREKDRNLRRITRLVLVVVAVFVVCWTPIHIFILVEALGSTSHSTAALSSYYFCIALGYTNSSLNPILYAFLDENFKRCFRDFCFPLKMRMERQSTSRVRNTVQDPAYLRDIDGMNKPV
# Chain of Glucagon receptor (Mus musculus, UniProt Q61606) (Q61606 whole entry): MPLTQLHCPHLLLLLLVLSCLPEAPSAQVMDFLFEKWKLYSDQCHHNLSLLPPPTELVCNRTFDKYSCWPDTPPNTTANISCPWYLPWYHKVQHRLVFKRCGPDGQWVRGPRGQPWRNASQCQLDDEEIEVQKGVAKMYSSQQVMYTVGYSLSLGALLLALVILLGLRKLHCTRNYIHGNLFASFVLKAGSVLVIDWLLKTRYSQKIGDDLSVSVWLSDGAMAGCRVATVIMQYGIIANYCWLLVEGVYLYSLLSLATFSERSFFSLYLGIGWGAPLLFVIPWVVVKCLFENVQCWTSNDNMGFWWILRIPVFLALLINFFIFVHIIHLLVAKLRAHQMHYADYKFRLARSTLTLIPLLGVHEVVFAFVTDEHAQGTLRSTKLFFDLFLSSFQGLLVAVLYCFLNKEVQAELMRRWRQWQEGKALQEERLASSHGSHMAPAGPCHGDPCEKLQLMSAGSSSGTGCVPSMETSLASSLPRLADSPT
smiles,measurement,setting,value
CC(C)(C)CC[C@H](c1ccc(C(=O)NCc2nn[nH]n2)cc1)N1C(=O)C(c2cc(Cl)cc(Cl)c2)=N[C@]12CC[C@@H](C(C)(C)C)CC2,inhibition,[1],75%
same,IC50,Glucagon receptor [2],0.046 µM
same,IC50,Glucagon receptor [3],0.13 µM
same,clearance,[4],1.4 mL/min/kg
same,clearance,[5],1.8 mL/min/kg
same,Vd,[6],1.3 L/kg
same,half-life,[7],8.3 h
same,half-life,[8],7.9 h
same,AUC/dose,Mus musculus [9],6 µM·h/mg/kg
same,AUC/dose,Canis familiaris,30 µM·h/mg/kg
same,bioavailability,[10],31%
same,bioavailability,[11],15%
same,bioavailability,[12],32%
same,bioavailability,[13],49%
same,inhibition,[14],93%
same,Ki,Adenosine receptor A3,2.43 µM
same,inhibition,[15],75%
same,IC50,[16],2.1 µM
same,Activity,Mus musculus [17],Active
same,concentration at 24 h,[18],810 nM
same,Activity,Mus musculus [19],Active
same,concentration at 8 h,[20],1100 nM
same,concentration at 8 h,[21],4500 nM
same,concentration at 8 h,[22],8500 nM
same,inhibition,[23],96%
